Entries after “also recorded” stand apart in the source; their conditions may differ.

One assay deals with p21 mRNA, U937 cells. Nature of the assay: etoposide-induced p21 mRNA expression in cultured U937 cells. Format: cell-based, human. Conditions: 10 μM etoposide, 2 hours at 37° C. (FIG. 1).
Assay [1] deals with p21 mRNA, U937 cells mixed with blood. Nature of the assay: etoposide-induced p21 mRNA expression from U937 cells mixed in healthy adult blood. Format: cell-based, human. The note with it: 10 μM etoposide-treated U937, 1,250 U937 cells added to 1 μL blood, vs DMSO-treated U937 (FIG. 2). The protocol:
The mRNA and cDNA were prepared from whole blood. In brief, home-made 96-well filterplates were placed over collection plates, and 150 μl 5 mM Tris, pH 7.4, was applied. Following centrifugation at 120×g for 1 min at 4° C., 50 μl of blood samples were applied to each well and immediately centrifuged at 120×g for 2 min at 4° C., followed by washing of each well with 300 μl PBS once with centrifugation at 2000×g for 5 min at 4° C. Then, 60 μl stock lysis buffer, containing for example 0.5% N-Lauroylsarcosine, 4×SSC, 10 mM Tris HCl, pH 7.4, 1 mM EDTA, 0.1% IGEPAL CA-630, and 1.791 M guanidine thiocyanate, supplemented with 1% 2-mercaptoethanol (Bio Rad, Hercules, Calif., USA), 0.5 mg/ml proteinase K (Pierce, Rockford, Ill., USA), 0.1 mg/ml salmon sperm DNA (5 Prime Eppendorf/Brinkmann, Westbury, N.Y., USA), 0.1 mg/ml E. coli tRNA (Sigma), a cocktail of 10 mM each of the specific reverse primers shown in Table 1, and standard RNA34 oligonucleotides, were applied to the filterplates, followed by incubation at 37° C. for 10 min. The filterplates were then placed over oligo(dT)-immobilized microplates (GenePlate, RNAture), and centrifuged at 2000×g for 5 min at 4° C. […] The Ct was determined by analytical software (SDS, ABI). […]

In assay [2] the test system is leukemic non-Hodgkin's malignant lymphoma patient. Nature of the assay: clinical course of patient 2 (leukemic non-Hodgkin's lymphoma). Format: in vivo, human. The note with it: patient 2 with continued thrombocytopenia (FIG. 4).
A further assay concerns PUMA mRNA. Nature of the assay: drug-induced PUMA mRNA expression in whole blood of leukemia and lymphoma patients. It counts as cell-based, human. Conditions: 2 hours at 37° C.
The subject of assay [3] is BAX mRNA. Nature of the assay: drug-induced BAX mRNA expression in whole blood of healthy adults. It counts as cell-based, human. The note with it: for Bax induction: 20 μM BLM or 100 μM VP-16, 4 hours at 37° C., ΔCt smaller than p21, not induced in 1 or 2 individuals (FIG. 6); for BAX responses compared with p21 and PUMA: 100 μM VP-16 or 20 μM BLM, 2 hours at 37° C., p<0.01 (FIG. 14). The source says:
Blood was obtained from healthy adults and from two leukemic non-Hodgkin's malignant lymphoma patients. U937, KG-1, and Jurkat cells were obtained from American Type Culture Collection (ATCC, Manassas, Va.), and maintained in RPMI 1640 supplemented with 10% fetal calf serum. Of these, U937 cells are a human histiocytic lymphoma cell line, KG-1 cells are a human bone marrow myelogenous leukemia cell line, and Jurkat cells are a human T-cell lymphoblast-like, leukemia derived cell line. […] For human experiments, blood aliquots were stimulated with various anti-cancer drugs at 37° C. for 2 hours, then both p21 and BAX mRNA were measured. The anti-cancer drugs used in this study were clinical drugs, and the concentration of each drug was adjusted to typical blood levels 3-6 hours after intravenous administration.
The mRNA and cDNA were prepared from whole blood. In brief, home-made 96-well filterplates were placed over collection plates, and 150 μl 5 mM Tris, pH 7.4, was applied. Following centrifugation at 120×g for 1 min at 4° C., 50 μl of blood samples were applied to each well and immediately centrifuged at 120×g for 2 min at 4° C., followed by washing of each well with 300 μl PBS once with centrifugation at 2000×g for 5 min at 4° C. Then, 60 μl stock lysis buffer, containing for example 0.5% N-Lauroylsarcosine, 4×SSC, 10 mM Tris HCl, pH 7.4, 1 mM EDTA, 0.1% IGEPAL CA-630, and 1.791 M guanidine thiocyanate, supplemented with 1% 2-mercaptoethanol (Bio Rad, Hercules, Calif., USA), 0.5 mg/ml proteinase K (Pierce, Rockford, Ill., USA), 0.1 mg/ml salmon sperm DNA (5 Prime Eppendorf/Brinkmann, Westbury, N.Y., USA), 0.1 mg/ml E. coli tRNA (Sigma), a cocktail of 10 mM each of the specific reverse primers shown in Table 1, and standard RNA34 oligonucleotides, were applied to the filterplates, followed by incubation at 37° C. for 10 min. The filterplates were then placed over oligo(dT)-immobilized microplates (GenePlate, RNAture), and centrifuged at 2000×g for 5 min at 4° C. Following overnight storage at 4° C., the microplates were washed with 100 μl plain lysis buffer 3 times, followed by 150 μl of wash buffer (0.5 M NaCl, 10 mM Tris, pH 7.4, 1 mM EDTA) 3 times at 4° C. The cDNA was directly synthesized in each well by adding 30 μl buffer containing 1× RT-butter, 1.25 mM each of dNTP, 4 units rRNasin, and 80 units of MMLV reverse transcriptase (Promega) (without primers), and incubation at 37° C. for 2 hours. The specific primer-primed cDNA existed in solution, and oligo(dT)-primed cDNA stayed immobilized in the microplate. […] The Ct was determined by analytical software (SDS, ABI). […]

The subject of assay [4] is BAX mRNA. Nature of the assay: drug-induced BAX mRNA expression in whole blood of leukemia and lymphoma patients. The note with it: leukemic lymphoma patient 2, 2 hours at 37° C., drug concentrations (FIG. 3). Format: cell-based, human.
Protocol: The mRNA and cDNA were prepared from whole blood. In brief, home-made 96-well filterplates were placed over collection plates, and 150 μl 5 mM Tris, pH 7.4, was applied. Following centrifugation at 120×g for 1 min at 4° C., 50 μl of blood samples were applied to each well and immediately centrifuged at 120×g for 2 min at 4° C., followed by washing of each well with 300 μl PBS once with centrifugation at 2000×g for 5 min at 4° C. Then, 60 μl stock lysis buffer, containing for example 0.5% N-Lauroylsarcosine, 4×SSC, 10 mM Tris HCl, pH 7.4, 1 mM EDTA, 0.1% IGEPAL CA-630, and 1.791 M guanidine thiocyanate, supplemented with 1% 2-mercaptoethanol (Bio Rad, Hercules, Calif., USA), 0.5 mg/ml proteinase K (Pierce, Rockford, Ill., USA), 0.1 mg/ml salmon sperm DNA (5 Prime Eppendorf/Brinkmann, Westbury, N.Y., USA), 0.1 mg/ml E. coli tRNA (Sigma), a cocktail of 10 mM each of the specific reverse primers shown in Table 1, and standard RNA34 oligonucleotides, were applied to the filterplates, followed by incubation at 37° C. for 10 min. The filterplates were then placed over oligo(dT)-immobilized microplates (GenePlate, RNAture), and centrifuged at 2000×g for 5 min at 4° C. Following overnight storage at 4° C., the microplates were washed with 100 μl plain lysis buffer 3 times, followed by 150 μl of wash buffer (0.5 M NaCl, 10 mM Tris, pH 7.4, 1 mM EDTA) 3 times at 4° C. The cDNA was directly synthesized in each well by adding 30 μl buffer containing 1× RT-butter, 1.25 mM each of dNTP, 4 units rRNasin, and 80 units of MMLV reverse transcriptase (Promega) (without primers), and incubation at 37° C. for 2 hours. The specific primer-primed cDNA existed in solution, and oligo(dT)-primed cDNA stayed immobilized in the microplate. For TaqMan PCR (FIGS. 1, 3, 4), the resultant 4 μl cDNA solution was directly transferred to 384-well PCR plates, to which 5 μl of TaqMan universal master mix (ABI) and 1 μl oligonucleotide cocktail (15 μM each of forward and reverse primer, and 3-6 μM TaqMan probe) were applied, and PCR was conducted in PRISM 7900HT (ABI), with one cycle of 95° C. for 10 min followed by 45 cycles of 95° C. for 30 sec, 55° C. for 30 sec, and 60° C. for 1 min. […] The Ct was determined by analytical software (SDS, ABI).
In a further assay the test system is p21 mRNA, Jurkat cells. Nature of the assay: etoposide-induced p21 mRNA expression in cultured Jurkat cells. Format: cell-based, human. Conditions: even when 100 μM was used (FIG. 1).
Another assay has as its system human whole blood. Nature of the assay: DNA fragmentation (apoptosis) in whole blood by agarose gel electrophoresis. The note with it: 1 day of incubation, 100 μM VP-16, 20 μM BLM (FIG. 5 inset). It counts as cell-based.

Protocol for human whole blood: Using a commercial kit (Puregene, Gentra, Minneapolis, Minn.), genomic DNA was purified from 300 μl each of whole blood with or without treatments. DNA was then analyzed in 3.5% agarose (3:1 NuSieve:agarose, FMC, Rockland, Me.) gel electrophoresis, stained with 0.5 μg/ml ethidium bromide, and photographic images were recorded by AlphaImager (Alpha Innotech, San Leandro, Calif.).
To mimic physiological conditions, whole blood was used, without isolating mononuclear cells. […] After 1 day of incubation, genomic DNA was extracted, and DNA fragmentation was analyzed by agarose gel electrophoresis using ethidium bromide staining.
Genomic DNA was purified from 300 μl each of whole blood with or without treatments, using a commercial kit (Puregene, Gentra, Minneapolis, Minn.). DNA was then analyzed in 3.5% agarose (3:1 NuSieve:agarose, FMC, Rockland, Me.) gel electrophoresis, stained with 0.5 μg/ml ethidium bromide, and photographic images were recorded by Alpha-Iimager (Alpha Innotech, San Leandro, Calif.).
Protocol for p21 mRNA, Jurkat cells: Blood was obtained from healthy adults and from two leukemic non-Hodgkin's malignant lymphoma patients. […] For human experiments, blood aliquots were stimulated with various anti-cancer drugs at 37° C. for 2 hours, then both p21 and BAX mRNA were measured. The anti-cancer drugs used in this study were clinical drugs, and the concentration of each drug was adjusted to typical blood levels 3-6 hours after intravenous administration.
The mRNA and cDNA were prepared from whole blood. In brief, home-made 96-well filterplates were placed over collection plates, and 150 μl 5 mM Tris, pH 7.4, was applied. Following centrifugation at 120×g for 1 min at 4° C., 50 μl of blood samples were applied to each well and immediately centrifuged at 120×g for 2 min at 4° C., followed by washing of each well with 300 μl PBS once with centrifugation at 2000×g for 5 min at 4° C. […] The Ct was determined by analytical software (SDS, ABI).

In the case of `COc1cc([C@@H]2c3cc4c(cc3[C@@H](O[C@@H]3O[C@@H]5CO[C@@H](C)O[C@H]5[C@H](O)[C@H]3O)[C@H]3COC(=O)[C@H]23)OCO4)cc(OC)c1O` [VP-16, etoposide], in the assay with p21 mRNA, U937 cells, the p21 expression result is recorded as “slight but significant p21 expression”. In addition, in assay [1], the “p21 mRNA expression” value was “significant”. Further, the platelet count entry in assay [2] is on record as “increased substantially”. The PUMA induction result in the assay with PUMA mRNA (AML patient, drug concentrations of b94 (FIG. 8B)) was “huge induction”. Besides, the PUMA response entry in the assay with PUMA mRNA (NHL patient, drug concentrations (FIG. 8C)) is listed as “strong PUMA response”. In the assay on BAX mRNA [3], the Bax induction entry was “induced”; the “BAX responses compared with p21 and PUMA” value is “significantly less than those of p21 and PUMA”. The “BAX mRNA induction” value in the assay on BAX mRNA [4] is listed as “induced”. Besides, the “drug sensitivity (p21 mRNA expression)” value with p21 mRNA, Jurkat cells is “resistant”.

As for bleomycin [BLM], the “fragmentation of DNA” value in the assay on human whole blood is given as “confirmed; also recorded: fragmentation of DNA was observed”. For the same compound, in the assay on BAX mRNA [3], the Bax induction result was “induced”; the “BAX responses compared with p21 and PUMA” value was “significantly less than those of p21 and PUMA”.

The values are drawn from patent US20090011410A1, “METHOD FOR TAILORING ADMINISTRATION OF DRUGS BY QUANTITATION OF MRNA” (priority 2004, published 2009).
